Assays:
[1] = Induction of apoptosis in hypoxia-induced human PASMC cells assessed as viable cells at 5 uM incubated for 12 hrs by Annexin V/FITC staining based flow cytometry analysis (reference value: 88.26%); type: functional; conditions: read-out: Activity
[2] = Antiproliferative activity against human PASMC cells assessed as cell viability incubated for 48 hrs under hypoxia condition by CCK-8 assay; type: toxicity, cell-based
[3] = Induction of apoptosis in hypoxia-induced human PASMC cells assessed as early apoptotic cells at 5 uM incubated for 12 hrs by Annexin V/FITC staining based flow cytometry analysis (reference value: 10.17%); type: functional
[4] = Induction of apoptosis in hypoxia-induced human PASMC cells assessed as late apoptotic cells at 5 uM incubated for 12 hrs by Annexin V/FITC staining based flow cytometry analysis (reference value: 0.88%); type: functional
[5] = Induction of apoptosis in hypoxia-induced human PASMC cells assessed as necrotic cells at 5 uM incubated for 12 hrs by Annexin V/FITC staining based flow cytometry analysis (reference value: 0.68%); type: functional

For c1cc(-c2cnn3cc(-c4ccc(OCCN5CCCCC5)cc4)cnc23)ccn1 [DORSOMORPHIN], the viability at 5 µM [1] was 89.4%, the IC50 [2] was 5.48 µM and the Activity [3] was 7.31%. The Activity [4] was 1.7% and the Activity [5] was 1.56%.

From ChEMBL document CHEMBL6103567, “A novel pyridine-2-one AMPK inhibitor: Discovery, mechanism, and in vivo evaluation in a hypoxic pulmonary arterial hypertension rat model” (Eur J Med Chem, 2025)
